Results on twelve compounds are retold here after patent US10736932B2, “Small molecule Ras inhibitors” (Ohio State Innovation Foundation, priority 2014, dated 2020).

Square brackets hold non-standard residues; d marks the D form. Side chains are listed from the residue outwards. Peptide text beside a SMILES is read from it. Phe(3,4-F2) = N[C@@H](Cc1ccc(F)c(F)c1)C(=O)O; Phe(4-F) = N[C@@H](Cc1ccc(F)cc1)C(=O)O; 2Nal = N[C@@H](Cc1ccc2ccccc2c1)C(=O)O; d2Nal = N[C@H](Cc1ccc2ccccc2c1)C(=O)O; Tle = CC(C)(C)[C@H](N)C(=O)O; dNle = CCCC[C@@H](N)C(=O)O

Broadly, the IC50 is the concentration that gives 50% inhibition. Read a high IC50 as a need for much substance.

The assay has as its target T1, K-Ras / Raf RBD interaction (Homo sapiens, UniProt P01116, G12V).
T1 construct: The G12V mutant K-Ras (amino acids 1-185) was recombinantly fused; GST (N, cleaved yes); made in house; host or cells: Escherichia coli BL21
Put plainly: HTRF assay, inhibition of Ras-Raf RBD interaction.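 Also: HTRF signal read after overnight incubation of the assay plate at 4 °C.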 Type of assay: binding. On the technique in general: TR-FRET usually uses a lanthanide donor and a delayed reading to cut background.

`CCCC[C@H]1NC(=O)[C@H](Cc2ccc(F)cc2)NC(=O)[C@H](CCCNC(=N)N)NC(=O)[C@@H](Cc2ccc3ccccc3c2)NC(=O)[C@H](CCCNC(=N)N)NC(=O)[C@H](CCCNC(=N)N)NC(=O)[C@@H](CCCNC(=N)N)NC(=O)[C@@H](C)NC(=O)[C@H](C(C)(C)C)NC(=O)[C@H](Cc2c[nH]c3ccccc23)NC(=O)[C@H](CCC(N)=O)NC1=O` [Cyclorasin 9A16, (Trp-Tle-ala-arg-Arg-Arg-nal-Arg-Fpa-nle-Gln)] (cyclo(W[Tle][dA][dR]RR[d2Nal]R[Phe(4-F)][dNle]Q)) had a concentration for half-maximal inhibition (IC50) of 110 ± 10 nM. The “increase in Ras binding affinity upon residue substitution” value (relative to parent 9A5/9A6) is around 2 fold.

For `CCCC[C@H]1NC(=O)[C@H](Cc2ccc(F)cc2)NC(=O)[C@H](CCCNC(=N)N)NC(=O)[C@@H](Cc2ccc3ccccc3c2)NC(=O)[C@H](CCCNC(=N)N)NC(=O)[C@H](C)NC(=O)[C@H](CCC(=O)N[C@@H](CCCCN)C(N)=O)NC(=O)[C@@H](C)NC(=O)[C@H]([C@@H](C)O)NC(=O)[C@H](Cc2c[nH]c3ccccc23)NC(=O)[C@@H](CO)NC1=O` [Cyclorasin 9A(Arg1A), (Ala-Arg-nal-Arg-Fpa-nle-ser-Trp-Thr-ala-Gln)-Lys] (cyclo(AR[d2Nal]R[Phe(4-F)][dNle][dS]WT[dA]E([Lys-NH2]))), the IC50 came to 1300 ± 200 nM. Same read-out and setting: under `CCCC[C@H]1NC(=O)[C@H](Cc2ccc(F)cc2)NC(=O)[C@H](CCCNC(=N)N)NC(=O)[C@@H](Cc2ccc3ccccc3c2)NC(=O)[C@H](CCCNC(=N)N)NC(=O)[C@H](CCCNC(=N)N)NC(=O)[C@@H](CCCNC(=N)N)NC(=O)[C@@H](C)NC(=O)[C@H](C(C)C)NC(=O)[C@H](Cc2c[nH]c3ccccc23)NC(=O)[C@H](CCC(N)=O)NC1=O` [Cyclorasin 9A18, (Trp-Val-ala-arg-Arg-Arg-nal-Arg-Fpa-nle-Gln)] (cyclo(WV[dA][dR]RR[d2Nal]R[Phe(4-F)][dNle]Q)) stands 230 ± 110 nM; under `CCCC[C@H]1NC(=O)[C@H](Cc2ccc(F)cc2)NC(=O)[C@H](CCCNC(=N)N)NC(=O)[C@@H](Cc2ccc3ccccc3c2)NC(=O)[C@H](CCCNC(=N)N)NC(=O)[C@H](CCCNC(=N)N)NC(=O)[C@H](CCCNC(=N)N)NC(=O)[C@@H](C)NC(=O)[C@H]([C@@H](C)O)NC(=O)[C@H](Cc2ccc3ccccc3c2)NC(=O)[C@H](CCC(N)=O)NC1=O` [Cyclorasin 9A49, (Nal-Thr-ala-Arg-Arg-Arg-nal-Arg-Fpa-nle-Gln)] (cyclo([2Nal]T[dA]RRR[d2Nal]R[Phe(4-F)][dNle]Q)), 100 ± 10 nM; under `CCCC[C@H]1NC(=O)[C@H](Cc2ccc(F)cc2)NC(=O)[C@H](CCCNC(=N)N)NC(=O)[C@@H](Cc2ccc3ccccc3c2)NC(=O)[C@H](CCCNC(=N)N)NC(=O)[C@H](CCCNC(=N)N)NC(=O)[C@@H](CCCNC(=N)N)NC(=O)[C@@H](CC(C)C)NC(=O)[C@H]([C@@H](C)O)NC(=O)[C@H](Cc2c[nH]c3ccccc23)NC(=O)[C@H](CCC(N)=O)NC1=O` [Cyclorasin 9A15, (Trp-Thr-leu-arg-Arg-Arg-nal-Arg-Fpa-nle-Gln)] (cyclo(WT[dL][dR]RR[d2Nal]R[Phe(4-F)][dNle]Q)), 110 ± 40 nM. For the compound `CC(C)[C@H]1NC(=O)[C@H](Cc2ccc(F)cc2)NC(=O)[C@H](CCCNC(=N)N)NC(=O)[C@@H](Cc2ccc3ccccc3c2)NC(=O)[C@H](CCCNC(=N)N)NC(=O)[C@H](CCCNC(=N)N)NC(=O)[C@@H](CCCNC(=N)N)NC(=O)[C@@H](C)NC(=O)[C@H]([C@@H](C)O)NC(=O)[C@H](Cc2c[nH]c3ccccc23)NC(=O)[C@H](CCC(N)=O)NC1=O` [Cyclorasin 9A11, (Trp-Thr-ala-arg-Arg-Arg-nal-Arg-Fpa-val-Gln)] (cyclo(WT[dA][dR]RR[d2Nal]R[Phe(4-F)][dV]Q)), the half-inhibitory concentration (IC50) came out at 310 ± 80 nM. On the same count and under the same terms, the value for `CCCC[C@H]1NC(=O)[C@H](Cc2ccc(F)cc2)NC(=O)[C@H](CCCNC(=N)N)NC(=O)[C@@H](Cc2ccc3ccccc3c2)NC(=O)[C@H](C)NC(=O)[C@H](CCCNC(=N)N)NC(=O)[C@H](CCC(=O)N[C@@H](CCCCN)C(N)=O)NC(=O)[C@@H](C)NC(=O)[C@H]([C@@H](C)O)NC(=O)[C@H](Cc2c[nH]c3ccccc23)NC(=O)[C@@H](CO)NC1=O` [Cyclorasin 9A(Arg2A), (Arg-Ala-nal-Arg-Fpa-nle-ser-Trp-Thr-ala-Gln)-Lys] (cyclo(RA[d2Nal]R[Phe(4-F)][dNle][dS]WT[dA]E([Lys-NH2]))) was 940 ± 290 nM. On the same count and under the same terms, the value for `CCCC[C@H]1NC(=O)[C@H](Cc2ccc(F)cc2)NC(=O)[C@H](CCCNC(=N)N)NC(=O)[C@H](Cc2ccc3ccccc3c2)NC(=O)[C@H](CCCNC(=N)N)NC(=O)[C@H](CCCNC(=N)N)NC(=O)[C@H](CCCNC(=N)N)NC(=O)[C@@H](C)NC(=O)[C@H]([C@@H](C)O)NC(=O)[C@H](Cc2c[nH]c3ccccc23)NC(=O)[C@H](CCC(N)=O)NC1=O` [Cyclorasin 9A55, (Trp-Thr-ala-Arg-Arg-Arg-Nal-Arg-Fpa-nle-Gln)] (cyclo(WT[dA]RRR[2Nal]R[Phe(4-F)][dNle]Q)) was 940 ± 280 nM; that for `CCCC[C@H]1NC(=O)[C@H](Cc2ccc(F)cc2)NC(=O)[C@H](CCCNC(=N)N)NC(=O)[C@@H](Cc2ccc3ccccc3c2)NC(=O)[C@H](CCCNC(=N)N)NC(=O)[C@H](CCCNC(=N)N)NC(=O)[C@H](CCC(=O)N[C@@H](CCCCN)C(N)=O)NC(=O)[C@@H](C)NC(=O)[C@H](C)NC(=O)[C@H](Cc2c[nH]c3ccccc23)NC(=O)[C@@H](CO)NC1=O` [Cyclorasin 9A(Thr9A), (Arg-Arg-nal-Arg-Fpa-nle-ser-Trp-Ala-ala-Gln)-Lys] (cyclo(A[dA]E([Lys-NH2])RR[d2Nal]R[Phe(4-F)][dNle][dS]W)) was above 10000 nM.

`CCCC[C@H]1NC(=O)[C@H](Cc2ccc(F)c(F)c2)NC(=O)[C@H](CCCNC(=N)N)NC(=O)[C@@H](Cc2ccc3ccccc3c2)NC(=O)[C@H](CCCNC(=N)N)NC(=O)[C@H](CCCNC(=N)N)NC(=O)[C@@H](CCCNC(=N)N)NC(=O)[C@@H](C(C)C)NC(=O)[C@H](C(C)(C)C)NC(=O)[C@H](Cc2c[nH]c3ccccc23)NC(=O)[C@H](CCC(N)=O)NC1=O` [Cyclorasin 9A51, (Trp-Tle-val-arg-Arg-Arg-nal-Arg-Phe(3,4-difluoro)-nle-Gln)] (cyclo(W[Tle][dV][dR]RR[d2Nal]R[Phe(3,4-F2)][dNle]Q)) registered a 50% inhibitory concentration (IC50) of 15 nM.

Take `CC(C)C[C@H]1NC(=O)[C@H](Cc2ccc(F)cc2)NC(=O)[C@H](CCCNC(=N)N)NC(=O)[C@@H](Cc2ccc3ccccc3c2)NC(=O)[C@H](CCCNC(=N)N)NC(=O)[C@H](CCCNC(=N)N)NC(=O)[C@@H](CCCNC(=N)N)NC(=O)[C@@H](C)NC(=O)[C@H]([C@@H](C)O)NC(=O)[C@H](Cc2c[nH]c3ccccc23)NC(=O)[C@H](CCC(N)=O)NC1=O` [Cyclorasin 9A10, (Trp-Thr-ala-arg-Arg-Arg-nal-Arg-Fpa-leu-Gln)] (cyclo(WT[dA][dR]RR[d2Nal]R[Phe(4-F)][dL]Q)): the IC50 is 240 ± 130 nM. In turn, `CCCC[C@H]1NC(=O)[C@H](Cc2ccc(F)cc2)NC(=O)[C@H](CCCNC(=N)N)NC(=O)[C@@H](Cc2ccc3ccccc3c2)NC(=O)[C@H](CCCNC(=N)N)NC(=O)[C@H](CCCNC(=N)N)NC(=O)[C@@H](CCCNC(=N)N)NC(=O)[C@@H](C(C)C)NC(=O)[C@H](C(C)(C)C)NC(=O)[C@H](Cc2c[nH]c3ccccc23)NC(=O)[C@H](CCC(N)=O)NC1=O` [Cyclorasin 9A53, (Trp-Tle-val-arg-Arg-Arg-nal-Arg-Fpa-nle-Gln)] (cyclo(W[Tle][dV][dR]RR[d2Nal]R[Phe(4-F)][dNle]Q)) had an IC50 of 27 ± 11 nM.
